Measured values: ChEMBL document CHEMBL3045060, “Synthesis of some urea and thiourea derivatives of naphtha[1,2-d]thiazol-2-amine as anti-Parkinsonian agents that cause neuroprotection against haloperidol-induced oxidative stress in mice” (2009)

Tests used:
Format in all cases: functional
Mus musculus [1] = experiment: Neuroprotective activity in Mus musculus Swiss albino (mouse) model assessed as reduction in haloperidol-induced catalepsy at 100 mg/kg, ip administered 30 min before haloperidol challenge measured for 30 to 180 min; design: scale not given: the % may be the effect or the level left; conditions: route intraperitoneal
Mus musculus [2] = experiment: Neuroprotective activity in haloperidol-induced catalepsy Mus musculus Swiss albino (mouse) model assessed as mean cumulative descent time at 100 mg/kg, po administered 30 min before haloperidol challenge (reference value: 33 +/- 1.34 min)
Mus musculus [3] = experiment: Neuroprotective activity in haloperidol-induced catalepsy Mus musculus Swiss albino (mouse) model assessed as mean descent time at 100 mg/kg, po administered 30 min before haloperidol challenge measured at 30 min post challenge
Mus musculus [4] = experiment: Neuroprotective activity in haloperidol-induced catalepsy Mus musculus Swiss albino (mouse) model assessed as mean descent time at 100 mg/kg, po administered 30 min before haloperidol challenge measured at 60 min post challenge
Mus musculus [5] = experiment: Neuroprotective activity in haloperidol-induced catalepsy Mus musculus Swiss albino (mouse) model assessed as mean descent time at 100 mg/kg, po administered 30 min before haloperidol challenge measured at 90 min post challenge
Mus musculus [6] = experiment: Neuroprotective activity in haloperidol-induced catalepsy Mus musculus Swiss albino (mouse) model assessed as mean descent time at 100 mg/kg, po administered 30 min before haloperidol challenge measured at 120 min post challenge
Mus musculus [7] = experiment: Neuroprotective activity in haloperidol-induced catalepsy Mus musculus Swiss albino (mouse) model assessed as mean descent time at 100 mg/kg, po administered 30 min before haloperidol challenge measured at 150 min post challenge
Mus musculus [8] = experiment: Neuroprotective activity in haloperidol-induced catalepsy Mus musculus Swiss albino (mouse) model assessed as mean descent time at 100 mg/kg, po administered 30 min before haloperidol challenge measured at 180 min post challenge
Mus musculus [9] = experiment: (§1) Neuroprotective activity in haloperidol-induced catalepsy Mus musculus Swiss albino (mouse) model assessed as GSH-Px activity per mg protein in brain homogenate at 100 mg/kg, po administered 30 min before haloperidol challenge measured after 4 hr post challenge by spectrophotometry (reference value: 2.129 +/- 0.06 U/mg protein)
Mus musculus [10] = experiment: as §1, with “as Cu-Zn-SOD” for “as GSH-Px”, “per gram” for “per mg”, “by NBT reduction assay” for “by spectrophotometry”, “value: 1.794” for “value: 2.129”, “+/- 0.03 U/g” for “+/- 0.06 U/mg”
Mus musculus [11] = experiment: as §1, with “GSH level” for “GSH-Px activity”, “gram of” for “mg protein in”, “tissue” for “homogenate”, “23.45” for “2.129”, “0.23 ug/g tissue)” for “0.06 U/mg protein)”
Mus musculus [12] = experiment: as §1, with “inhibition of MDA equivalent TBARS release” for “GSH-Px activity”, “1.157” for “2.129”, “nmol/mg” for “U/mg”

## S=C(Nc1nc2c(ccc3ccccc32)s1)Nc1ccccc1Br
Mus musculus [1]
  Activity: 30.96%
Mus musculus [2]
  Time: 18.1 min
Mus musculus [3]
  Time: 83 s
Mus musculus [4]
  Time: 160 s
Mus musculus [5]
  Time: 189 s
Mus musculus [6]
  Time: 207 s
Mus musculus [7]
  Time: 223 s
Mus musculus [8]
  Time: 226 s

## S=C(Nc1ccc(Br)cc1)Nc1nc2c(ccc3ccccc32)s1
Mus musculus [1]
  Activity: 35.27%
Mus musculus [2]
  Time: 17 min
Mus musculus [3]
  Time: 57 s
Mus musculus [4]
  Time: 139 s
Mus musculus [5]
  Time: 161 s
Mus musculus [6]
  Time: 222 s
Mus musculus [7]
  Time: 223 s
Mus musculus [8]
  Time: 220 s

## S=C(Nc1nc2c(ccc3ccccc32)s1)Nc1ccccc1Cl
Mus musculus [1]
  Activity: 39.14%
Mus musculus [2]
  Time: 16.1 min
Mus musculus [3]
  Time: 69 s
Mus musculus [4]
  Time: 156 s
Mus musculus [5]
  Time: 173 s
Mus musculus [6]
  Time: 190 s
Mus musculus [7]
  Time: 189 s
Mus musculus [8]
  Time: 186 s

## S=C(Nc1ccc(Cl)cc1)Nc1nc2c(ccc3ccccc32)s1
Mus musculus [1]
  Activity: 27.88%
Mus musculus [2]
  Time: 18.9 min
Mus musculus [3]
  Time: 92 s
Mus musculus [4]
  Time: 169 s
Mus musculus [5]
  Time: 198 s
Mus musculus [6]
  Time: 216 s
Mus musculus [7]
  Time: 232 s
Mus musculus [8]
  Time: 228 s

## O=[N+]([O-])c1ccccc1NC(=S)Nc1nc2c(ccc3ccccc32)s1
Mus musculus [9]
  Activity: 1.77 U/mg
Mus musculus [10]
  Activity: 1.398 U/g protein
Mus musculus [11]
  Activity: 12.5 µg/g
Mus musculus [1]
  Activity: 72.97%
Mus musculus [2]
  Time: 7.43 min
Mus musculus [3]
  Time: 20 s
Mus musculus [4]
  Time: 36 s
Mus musculus [5]
  Time: 71 s
Mus musculus [6]
  Time: 88 s
Mus musculus [7]
  Time: 109 s
Mus musculus [8]
  Time: 122 s
Mus musculus [12]
  Activity: 3.226 nmol/mg protein

## O=[N+]([O-])c1ccc(NC(=S)Nc2nc3c(ccc4ccccc43)s2)cc1
Mus musculus [1]
  Activity: 32.13%
Mus musculus [2]
  Time: 17.8 min
Mus musculus [3]
  Time: 77 s
Mus musculus [4]
  Time: 178 s
Mus musculus [5]
  Time: 199 s
Mus musculus [6]
  Time: 201 s
Mus musculus [7]
  Time: 207 s
Mus musculus [8]
  Time: 208 s

## Cc1ccccc1NC(=S)Nc1nc2c(ccc3ccccc32)s1
Mus musculus [1]
  Activity: 49.87%
Mus musculus [2]
  Time: 13.3 min
Mus musculus [3]
  Time: 68 s
Mus musculus [4]
  Time: 110 s
Mus musculus [5]
  Time: 138 s
Mus musculus [6]
  Time: 157 s
Mus musculus [7]
  Time: 160 s
Mus musculus [8]
  Time: 166 s

## Cc1ccc(NC(=S)Nc2nc3c(ccc4ccccc43)s2)cc1
Mus musculus [1]
  Activity: 47.97%
Mus musculus [2]
  Time: 13.8 min
Mus musculus [3]
  Time: 72 s
Mus musculus [4]
  Time: 114 s
Mus musculus [5]
  Time: 136 s
Mus musculus [6]
  Time: 161 s
Mus musculus [7]
  Time: 173 s
Mus musculus [8]
  Time: 172 s

## O=C(Nc1ccccc1)Nc1nc2c(ccc3ccccc32)s1
Mus musculus [1]
  Activity: 44.44%
Mus musculus [2]
  Time: 14.7 min
Mus musculus [3]
  Time: 72 s
Mus musculus [4]
  Time: 132 s
Mus musculus [5]
  Time: 156 s
Mus musculus [6]
  Time: 174 s
Mus musculus [7]
  Time: 172 s
Mus musculus [8]
  Time: 176 s

## COc1ccc(NC(=O)Nc2nc3c(ccc4ccccc43)s2)cc1
Mus musculus [1]
  Activity: 58.51%
Mus musculus [2]
  Time: 11.1 min
Mus musculus [3]
  Time: 41 s
Mus musculus [4]
  Time: 99 s
Mus musculus [5]
  Time: 122 s
Mus musculus [6]
  Time: 131 s
Mus musculus [7]
  Time: 136 s
Mus musculus [8]
  Time: 138 s

## COc1ccc(NC(=O)Nc2nc3c(ccc4ccccc43)s2)c(OC)c1
Mus musculus [9]
  Activity: 1.61 U/mg
Mus musculus [10]
  Activity: 1.469 U/g protein
Mus musculus [11]
  Activity: 13.6 µg/g
Mus musculus [1]
  Activity: 75%
Mus musculus [2]
  Time: 6.92 min
Mus musculus [3]
  Time: 32 s
Mus musculus [4]
  Time: 35 s
Mus musculus [5]
  Time: 39 s
Mus musculus [6]
  Time: 68 s
Mus musculus [7]
  Time: 120 s
Mus musculus [8]
  Time: 121 s
Mus musculus [12]
  Activity: 2.706 nmol/mg protein

## COc1cc(NC(=O)Nc2nc3c(ccc4ccccc43)s2)cc(OC)c1OC
Mus musculus [1]
  Activity: 70.29%
Mus musculus [2]
  Time: 8.12 min
Mus musculus [3]
  Time: 29 s
Mus musculus [4]
  Time: 68 s
Mus musculus [5]
  Time: 85 s
Mus musculus [6]
  Time: 89 s
Mus musculus [7]
  Time: 107 s
Mus musculus [8]
  Time: 109 s

## O=C(Nc1ccc(Oc2ccccc2)cc1)Nc1nc2c(ccc3ccccc32)s1
Mus musculus [1]
  Activity: 55.56%
Mus musculus [2]
  Time: 11.9 min
Mus musculus [3]
  Time: 76 s
Mus musculus [4]
  Time: 110 s
Mus musculus [5]
  Time: 119 s
Mus musculus [6]
  Time: 132 s
Mus musculus [7]
  Time: 135 s
Mus musculus [8]
  Time: 140 s

## O=C(Nc1nc2c(ccc3ccccc32)s1)Nc1ccccc1F
Mus musculus [1]
  Activity: 29.12%
Mus musculus [2]
  Time: 18.6 min
Mus musculus [3]
  Time: 57 s
Mus musculus [4]
  Time: 118 s
Mus musculus [5]
  Time: 188 s
Mus musculus [6]
  Time: 236 s
Mus musculus [7]
  Time: 245 s
Mus musculus [8]
  Time: 272 s

## O=C(Nc1ccc(F)cc1)Nc1nc2c(ccc3ccccc32)s1
Mus musculus [1]
  Activity: 30.3%
Mus musculus [2]
  Time: 18.3 min
Mus musculus [3]
  Time: 84 s
Mus musculus [4]
  Time: 159 s
Mus musculus [5]
  Time: 196 s
Mus musculus [6]
  Time: 207 s
Mus musculus [7]
  Time: 226 s
Mus musculus [8]
  Time: 226 s
